{"source": "patent US10588315B2", "about": "“Fungicidal compositions” (Syngenta Participations AG, priority 2012, dated 2020)", "system": "Gaeumannomyces graminis", "experiment": "Gaeumannomyces graminis / liquid culture", "assay_type": "cell-based", "details": "for inhibition at 0.2 ppm: 1.001 0.2000 ppm; for inhibition at 0.1 ppm: 1.001 0.1000 ppm", "description": "Mycelia fragments or conidia suspensions of a fungus, prepared either freshly from liquid cultures of the fungus or from cryogenic storage, were directly mixed into nutrient broth. DMSO solutions of the test compound (max. 10 mg/ml) was diluted with 0.025% Tween20 by factor 50 and 10 μl of this solution was pipetted into a microtiter plate (96-well format). The nutrient broth containing the fungal spores/mycelia fragments was then added to give an end concentration of the tested compound. The test plates were incubated in the dark at 24° C. and 96% rh. The inhibition of fungal growth was determined photometrically and visually after 2-4 days, depending on the pathosystem, and percent antifungal activity relative to the untreated check was calculated.\nMycelial fragments of the fungus from cryogenic storage were directly mixed into nutrient broth (PDB potato dextrose broth). After placing a (DMSO) solution of test compound into a microtiter plate (96-well format), the nutrient broth containing the fungal spores was added.", "key": {"[1]": {"details": "Gaeumannomyces graminis, B4.1, read-out: observed % activity"}, "[2]": {"details": "Gaeumannomyces graminis, B5.1, read-out: observed % activity"}, "[3]": {"details": "Gaeumannomyces graminis, B9.1, read-out: observed % activity"}}, "note": "Values joined by “and” are separate entries in the source; they are usually repeats but may differ in a detail not shown here. Identical values can stand only once. Like-named read-outs stand apart in the source and are kept apart here."}
{"molecule": "CON(C(=O)c1cn(C)nc1C(F)F)C(C)Cc1c(Cl)cc(Cl)cc1Cl", "note": "(centres unmarked) [Compound 1.001, 3-(difluoromethyl)-N-methoxy-1-methyl-N-[1-methyl-2-(2,4,6-trichlorophenyl)ethyl]pyrazole-4-carboxamide]", "values": [{"measurement": "observed % activity", "setting": "1.001 0.0063 ppm", "result": 10, "unit": "%"}, {"measurement": "observed % activity", "setting": "1.001 0.0125 ppm", "result": 1, "unit": "%"}, {"measurement": "observed % activity", "setting": "1.001 0.0250 ppm", "result": 6, "unit": "%"}, {"measurement": "observed % activity", "setting": "1.001 0.0500 ppm", "result": "3% and 1% and 9%"}, {"measurement": "inhibition at 0.0016 ppm", "setting": "Gaeumannomyces graminis, 1.001 0.0016 ppm, read-out: observed % activity", "result": 0, "unit": "%"}, {"measurement": "inhibition at 0.2 ppm", "setting": "Gaeumannomyces graminis, B1.1, read-out: observed % activity", "result": 7, "unit": "%"}, {"measurement": "inhibition at 0.0125 ppm", "setting": "Gaeumannomyces graminis, B2.1, 1.001 0.0125 ppm, read-out: observed % activity", "result": 0, "unit": "%"}, {"measurement": "inhibition at 0.025 ppm", "setting": "Gaeumannomyces graminis, B2.1, 1.001 0.0250 ppm, read-out: observed % activity", "result": 4, "unit": "%"}, {"measurement": "inhibition at 0.05 ppm", "setting": "Gaeumannomyces graminis, B2.1, 1.001 0.0500 ppm, read-out: observed % activity", "result": 0, "unit": "%"}, {"measurement": "inhibition at 0.1 ppm", "setting": "Gaeumannomyces graminis, B2.1, read-out: observed % activity", "result": 0, "unit": "%"}, {"measurement": "inhibition at 0.0031 ppm", "setting": "Gaeumannomyces graminis, B3.1, 1.001 0.0031 ppm, read-out: observed % activity", "result": 0, "unit": "%"}, {"measurement": "inhibition at 0.0063 ppm", "setting": "Gaeumannomyces graminis, B3.1, 1.001 0.0063 ppm, read-out: observed % activity", "result": 0, "unit": "%"}, {"measurement": "inhibition at 0.0125 ppm", "setting": "Gaeumannomyces graminis, B3.1, 1.001 0.0125 ppm, read-out: observed % activity", "result": 8, "unit": "%"}, {"measurement": "inhibition at 0.025 ppm", "setting": "Gaeumannomyces graminis, B3.1, 1.001 0.0250 ppm, read-out: observed % activity", "result": 0, "unit": "%"}, {"measurement": "inhibition at 0.05 ppm", "setting": "Gaeumannomyces graminis, B3.1, 1.001 0.0500 ppm, read-out: observed % activity", "result": 0, "unit": "%"}, {"measurement": "inhibition at 0.0125 ppm", "setting": "Gaeumannomyces graminis, B4.1, 1.001 0.0125 ppm, read-out: observed % activity", "result": 0, "unit": "%"}, {"measurement": "inhibition at 0.025 ppm", "setting": "Gaeumannomyces graminis, B4.1, 1.001 0.0250 ppm, read-out: observed % activity", "result": 0, "unit": "%"}, {"measurement": "inhibition at 0.05 ppm", "setting": "Gaeumannomyces graminis, B4.1, 1.001 0.0500 ppm, read-out: observed % activity", "result": 0, "unit": "%"}, {"measurement": "inhibition at 0.1 ppm", "setting": "[1]", "result": 0, "unit": "%"}, {"measurement": "inhibition at 0.2 ppm", "setting": "[1]", "result": 12, "unit": "%"}, {"measurement": "inhibition at 0.025 ppm", "setting": "Gaeumannomyces graminis, B5.1, 1.001 0.0250 ppm, read-out: observed % activity", "result": 0, "unit": "%"}, {"measurement": "inhibition at 0.05 ppm", "setting": "Gaeumannomyces graminis, B5.1, 1.001 0.0500 ppm, read-out: observed % activity", "result": 2, "unit": "%"}, {"measurement": "inhibition at 0.1 ppm", "setting": "[2]", "result": 0, "unit": "%"}, {"measurement": "inhibition at 0.2 ppm", "setting": "[2]", "result": 0, "unit": "%"}, {"measurement": "inhibition at 0.0063 ppm", "setting": "Gaeumannomyces graminis, B6.1, 1.001 0.0063 ppm, read-out: observed % activity", "result": 0, "unit": "%"}, {"measurement": "inhibition at 0.025 ppm", "setting": "Gaeumannomyces graminis, B6.1, 1.001 0.0250 ppm, read-out: observed % activity", "result": 0, "unit": "%"}, {"measurement": "inhibition at 0.1 ppm", "setting": "Gaeumannomyces graminis, B6.1, read-out: observed % activity", "result": 0, "unit": "%"}, {"measurement": "inhibition at 0.0125 ppm", "setting": "Gaeumannomyces graminis, B9.1, 1.001 0.0125 ppm, read-out: observed % activity", "result": 0, "unit": "%"}, {"measurement": "inhibition at 0.025 ppm", "setting": "Gaeumannomyces graminis, B9.1, 1.001 0.0250 ppm, read-out: observed % activity", "result": 0, "unit": "%"}, {"measurement": "inhibition at 0.05 ppm", "setting": "Gaeumannomyces graminis, B9.1, 1.001 0.0500 ppm, read-out: observed % activity", "result": 0, "unit": "%"}, {"measurement": "inhibition at 0.1 ppm", "setting": "[3]", "result": 0, "unit": "%"}, {"measurement": "inhibition at 0.2 ppm", "setting": "[3]", "result": 0, "unit": "%"}]}
